Measurements: patent US20120302636A1, “METHOD OF TREATING A DISORDER ASSOCIATED WITH MTP” (priority 2009, published 2012)
Read-outs that look alike come from different tables or passages of the source.

Columns and labels:
[1] = Example 1: plasma and urine concentrations by LC/MS/MS
[2] = Example 2: plasma and urine pharmacokinetics; format: in vivo, human
Protocol: Each tablet contained 5 mg (BID), 10 mg (QD), 20 mg (QD), or 30 mg (QD).

[3] = Example 3: pharmacokinetics; format: in vivo, human; details: both active groups
[4] = Example 5: pharmacokinetics; format: in vivo, human
Protocol: Fifty-two Japanese patients with hyperlipidemia (LDL-C between 140 and 220 mg/dL; TG≦400 mg/dL) participated in the study. […] One group received a fixed dose of 2 mg per tablet through the entire study. The other group received escalating doses of 0.5 mg (weeks 1-4), 1 mg (weeks 5-8), and 2 mg (weeks 9-12). For the efficacy analysis, 50 subjects were observed (25 in the fixed-dose group and 25 in the dose escalation group).
The objective of this study was preliminary evaluation of the efficacy (based on serum lipid levels), safety, and pharmacokinetics of the compound of formula (I) administered orally twice daily after breakfast and supper for 12 weeks as a fixed dose (4 mg/day) or escalating dose (1 mg/day, 2 mg/day and 4 mg/day) regimen in patients with hyperlipidemia.

[5] = Example 6: pharmacokinetics; format: in vivo, human
Text: Originally, the study was planned as 4 sequential cohorts of healthy male Caucasian subjects (Cohorts 1 to 4) followed by a cohort of male Caucasian patients with elevated triglycerides (HTG patients, Cohort 5). An additional cohort of healthy male Caucasian subjects (Cohort 4.1) was enrolled into the study (6 cohorts in total). The cohorts were as follows: Cohorts 1 to 4.1 had healthy Caucasian males, aged 18-45 years with a body weight of 60-100 kg and body mass index (BMI) between 19-28 kg/m^2 at screening and fasting triglycerides less than 1.69 mmol/L (less than 150 mg/dL) at the screening visit and Day-3. Cohort 5 had Caucasian males, aged 18-50 years with a body weight of 60-115 kg and BMI less than 35 kg/m^2 at screening and with elevated fasting triglycerides (TG≧1.69 mmol/L and <5.62 mmol/L; ≧150 mg/dL and <500 mg/dL) at the screening visit and Day-3.
The planned treatment for Cohorts 1 to 4 was twice daily administration of 5 mg, 10 mg or 15 mg the compound of formula (I)/placebo, or once daily administration of 30 mg the compound of formula (1)/placebo. […] As only the compound of formula (I) 5 mg capsules were supplied for this study, doses were administered once daily to determine the maximum tolerated dose, and the planned doses for each subsequent cohort were amended based on the safety and tolerability data obtained from the preceding cohort. The dose level and dosing schedule planned for the patients in Cohort 5 was determined by the maximum tolerated dose and dosing schedule as reported from the planned Cohorts 1 to 4.1.
Twelve healthy male Caucasian subjects were enrolled in each of Cohorts 1 to 4.1; dose cohorts were randomized in a ratio 9:3 to receive the compound of formula (I) or placebo, respectively, at the dose level associated with that cohort. Twelve male Caucasian patients with elevated triglycerides were randomized in a ratio of 8:4 to receive the compound of formula (I) or placebo, respectively, at the maximum tolerated dose level and dosing schedule.

[6] = target: MTP (Homo sapiens, UniProt P55157)
MTP, sequence (P55157 19-894, species assumed): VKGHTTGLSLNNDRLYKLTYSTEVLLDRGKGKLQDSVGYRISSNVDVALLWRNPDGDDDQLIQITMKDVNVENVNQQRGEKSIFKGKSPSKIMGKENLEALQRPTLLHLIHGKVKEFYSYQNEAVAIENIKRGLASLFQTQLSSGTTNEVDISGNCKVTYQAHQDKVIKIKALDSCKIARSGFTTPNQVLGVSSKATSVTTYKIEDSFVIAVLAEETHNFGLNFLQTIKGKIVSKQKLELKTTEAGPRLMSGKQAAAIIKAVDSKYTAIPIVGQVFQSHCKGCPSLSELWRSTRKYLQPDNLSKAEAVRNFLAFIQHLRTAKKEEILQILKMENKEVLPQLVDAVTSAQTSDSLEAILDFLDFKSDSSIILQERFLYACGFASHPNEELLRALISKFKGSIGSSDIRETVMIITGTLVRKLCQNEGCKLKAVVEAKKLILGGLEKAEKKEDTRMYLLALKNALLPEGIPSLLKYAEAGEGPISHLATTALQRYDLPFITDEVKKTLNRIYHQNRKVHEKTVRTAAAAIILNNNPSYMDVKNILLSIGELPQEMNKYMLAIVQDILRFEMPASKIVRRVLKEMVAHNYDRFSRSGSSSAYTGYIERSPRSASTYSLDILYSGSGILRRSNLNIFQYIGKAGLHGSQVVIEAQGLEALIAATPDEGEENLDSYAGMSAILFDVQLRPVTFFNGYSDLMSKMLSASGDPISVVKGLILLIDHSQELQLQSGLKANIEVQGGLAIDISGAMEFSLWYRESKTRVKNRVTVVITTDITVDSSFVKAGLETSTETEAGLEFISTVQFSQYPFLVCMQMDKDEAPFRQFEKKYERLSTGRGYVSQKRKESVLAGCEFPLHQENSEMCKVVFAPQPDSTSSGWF
MTP, sequence (P07237 18-508 partner, species assumed): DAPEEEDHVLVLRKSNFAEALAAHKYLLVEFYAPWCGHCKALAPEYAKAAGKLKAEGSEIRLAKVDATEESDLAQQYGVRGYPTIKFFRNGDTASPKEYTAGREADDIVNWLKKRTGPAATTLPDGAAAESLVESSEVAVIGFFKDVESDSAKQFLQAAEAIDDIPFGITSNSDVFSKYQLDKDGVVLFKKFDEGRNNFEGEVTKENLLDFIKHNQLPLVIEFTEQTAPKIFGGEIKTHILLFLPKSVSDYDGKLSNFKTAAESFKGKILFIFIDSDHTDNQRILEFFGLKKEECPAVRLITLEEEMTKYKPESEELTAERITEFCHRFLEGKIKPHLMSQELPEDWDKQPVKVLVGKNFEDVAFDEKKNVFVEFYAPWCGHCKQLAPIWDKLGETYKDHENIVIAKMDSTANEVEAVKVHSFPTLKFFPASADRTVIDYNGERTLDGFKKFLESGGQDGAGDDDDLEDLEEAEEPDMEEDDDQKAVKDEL

[7] = in vivo
[8] = Example 7: ascending dose study in obese subjects, pharmacokinetics

CN(C)C(=O)c1cc(CC(=O)O)ccc1NC(=O)c1ccccc1-c1ccc(C(F)(F)F)cc1 [metabolite M1, 2-(3-(dimethylcarbamoyl)-4-(4′-(trifluoromethyl)biphenyl-2-ylcarboxamido)phenyl)acetic acid]
mean Cmin ([1]; 5 mg group, Day 2): 8.33 ng/mL | mean Cmin ([1]; 5 mg group, Day 6): 25.97 ng/mL | mean Cmin relative to Day 2 ([1]; 5 mg group, Day 6): 3.12 times | mean Cmin ([1]; 15 mg group, Day 2): 33.57 ng/mL | mean Cmin ([1]; 15 mg group, Day 8): 181.90 ng/mL | mean Cmin relative to Day 2 ([1]; 15 mg group, Day 8): 5.42 times | excretion in urine (metabolite) ([1]; 5 and 15 mg groups): excreted in urine in all subjects | detection of metabolite in plasma ([1]; all subjects receiving compound): detected in plasma of all subjects | Cmax and AUC0-24hr dose proportionality (M1) ([2]; 10, 20, 30 mg QD, initial dose Day 1): greater than a dose-proportional | Cmin of the metabolite M1 ([2]; Day 2 to 14, all groups): quantifiable | plasma metabolite M1 ([2]; after initial dose on Day 1, all groups): quantifiable | metabolite M1 in urine ([2]; all groups): excreted in urine | Cmax and AUC dose proportionality (M1) ([2]; final dose on Day 14): dose-proportional | plasma metabolite M1 [3]: quantifiable | mean Cmin ([4]; dose escalation group, Week 10): 12.15 ng/mL | mean Cmin ([4]; dose escalation group, Week 10, females): 12.06 ng/mL | mean Cmin ([4]; dose escalation group, Week 10, males): 12.28 ng/mL | mean Cmin ([4]; dose escalation group, Week 12): 13.47 ng/mL | mean Cmin ([4]; dose escalation group, Week 12, females): 15.28 ng/mL | mean Cmin ([4]; dose escalation group, Week 12, males): 10.76 ng/mL | mean Cmin ([4]; fixed-dose group, Week 10): 12.20 ng/mL | mean Cmin ([4]; fixed-dose group, Week 12): 10.74 ng/mL | mean apparent terminal half-life ([5]; 5 mg BID, healthy): approximately 27 h | systemic availability (AUC0-τ and Cmax) in patients vs subjects with normal triglycerides ([5]; 5 mg, Cohort 5 vs Cohort 1): appeared to be greater | mean apparent terminal half-life ([5]; 5 mg, HTG patients): approximately 30 h | time to steady-state ([5]; 5 to 20 mg QD and BID, healthy subjects and patients): ~8 days | extent of systemic exposure, dose proportionality ([5]; 5 to 20 mg QD, healthy): greater than dose-proportional | urinary recovery up to 72 h post-last dose ([5]; 14 days administration, adjusted for molecular weight): up to 20 % of the total administered dose | urinary recovery ([5]; first administration): less than 8 % of the administered dose | MTP inhibitory activity [6]: no MTP inhibitory activity | MTP inhibitory activity ([6]; listed as M1): inactive | mean trough concentration of M1 [7]: increased in a dose-related manner | mean t1/2 ([8]; 1 mg group): 70.1 h | time to reach steady-state ([8]; 1 and 2.5 mg groups): 7 days | Cmax and AUC0-τ dose proportionality (M1) ([8]; 1 to 5 mg): dose proportional increase | time to reach steady-state ([8]; 3.5 and 5 mg groups): 5 days
